Reference: patent US20180318285A1, “METHODS FOR TREATMENT OF AUTISM SPECTRUM DISORDERS” (PRESIDENT AND FELLOWS OF HARVARD COLLEGE, priority 2015, published 2018)
Where two headings read alike, the source gives them in different places.

Key:
[1] = cited from earlier work
[2] = system: MeCP2-repressed (MR) long genes in MeCP2 knockdown primary cortical neurons; assay: Nanostring nCounter expression of MeCP2-repressed long genes in MeCP2 shRNA knockdown primary cortical neurons treated with topotecan; format: cell-based, mouse
Protocol: Primary cortical neurons were prepared from E16.5 mouse embryos and cultured as described by Kim et al. For lentiviral-mediated shRNA knockdown, virus was prepared as described in Tiscornia et al.^48 using the MeCP2 shRNA and control shRNA plasmids previously validated in Zhou et al.^49. Virus was concentrated and titrated using the GFP signal expressed from IRES GFP in the virus. After one day in vitro (DIV), cells were infected with lentivirus (knockdown or control) at an MOI of ˜5, such that >90% of cells were infected. […] RNA samples were processed and analyzed using the Nanostring nCounter assay as described above, with the exception that 6 control genes were used for normalization. […]
For non-amplification-based gene expression analysis, Nanostring nCounter reporter CodeSets were designed to detect candidate MeCP2-repressed genes in 250 ng of total RNA extracted from MeCP2 KO and R306C mice. […] Briefly, total RNA was incubated at 65° C. with reporter and capture probes in hybridization buffer overnight, and captured probes were purified and analyzed on the nCounter Digital Analyzer. […] Significant differences between wild-type and MeCP2 KO or MeCP2 R306C samples (p<0.01) were also detected by paired two-tailed t-test comparing the paired mean values for each gene (averaged across samples within each genotype) between genotypes

[3] = system: MeCP2 knockdown primary cortical neurons; assay: Ribosomal RNA (Bioanalyzer 18S/28S) and total RNA content of MeCP2 knockdown neurons treated with topotecan; format: cell-based, mouse; conditions: 50 nM topotecan
[4] = system: MeCP2 hemizygous male mice; assay: In vivo topotecan treatment by intracerebroventricular osmotic pump: survival and behavior score; design: species or system mouse; conditions: 25 μM topotecan in 28-day osmotic pump to right lateral ventricle, 8 week old mice, N=7-8
Protocol: MeCP2 hemizygous male mice at 8 weeks of age (Jackson Labs) were separated into two equal groups based weight. Using standard stereotaxic techniques, cannula (Alzet, Brain Infusion Kit 3) were guided to the right lateral ventricle (from bregma; A/P 1 mm, LV 1 mm) and connected to an osmotic pump (Alzet, 1004, 28-day release) that was implanted subcutaneously. The osmotic pumps had been previously loaded with either vehicle (50 mM tartaric acid) or 25 μM topotecan and primed at 37° C. for approximately 2 days prior to implantation. All mice survived surgery and the following postoperative day. Survival monitoring began on postoperative day 2 and behavioral scoring began on postoperative day 4. MeCP2 behavior was scored as previously reported by Guy et al. Science 2005. Briefly, 6 behavioral domains are monitored to capture the progression of the MeCP2 phenotype: locomotor activity, gait, hindlimb clasp, tremor, breathing, and overall condition. Each behavioral domain is scored as 0 (absence), 1 (mild to moderate), or 2 (severe), and summed to give the total behavioral score. Survival statistics: p=0.09; Mantel-Cox. Behavioral statistics: * p<0.05; 2-way ANOVA, Fisher's LSD. N=7-8.

## COc1cccc2c1C(=O)c1c(O)c3c(c(O)c1C2=O)C[C@@](O)(C(=O)CO)C[C@@H]3O[C@H]1C[C@H](N)[C@H](O)[C@H](C)O1 [doxorubicin]
[1]; injection of the drug alone or the uncoated nanoparticle
  doxorubicin concentrations in the brain: no detectable increase
[1]; nanoparticles overcoated with polysorbate 80, intravenous injection of 5 mg/kg
  doxorubicin concentrations in the brain: up to 6 μg/g

## CC[C@@]1(O)C(=O)OCc2c1cc1n(c2=O)Cc2cc3c(CN(C)C)c(O)ccc3nc2-1 [topotecan, Topotecan]
[2]; MeCP2 knockdown cortical neurons
  concentration of topotecan that most effectively reverses overexpression of long genes: 50 nM
[2]; cultured cortical neurons, MeCP2 RNAi knockdown, topotecan from DIV 4 to DIV 10
  reversal of long gene misregulation (up-regulation of long genes after MeCP2 knockdown): dose-dependent reversal of long gene misregulation
[3]
  effect on decreased ribosomal RNA content of neurons lacking MeCP2: partially reverses the decreased ribosomal RNA content
[4]
  Behavioral statistics, p (2-way ANOVA, Fisher's LSD), total behavioral score, topotecan versus vehicle: < 0.05
  Survival statistics, p (Mantel-Cox), topotecan versus vehicle: 0.09
